Experimental data reported in PubChem BioAssay (NCI).
Several values for one entry are separate records, joined by “and”; a condition that tells them apart may be missing. Equal values may be shown once.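 In this assay, cells in 96-well plates receive the compound at five concentrations for 48 hours. Endpoints are linearly interpolated between the surrounding concentrations. Here, GI50 denotes the concentration required for 50% inhibition of growth. TGI denotes the concentration required for complete inhibition of growth.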

Key:
Test in all cases: NCI-60 cell line screen, 48 h
[1] = system: OVCAR-5 ovarian
[2] = system: HCT-15 colon
[3] = system: ACHN renal
[4] = system: SNB-75 CNS
[5] = system: HL-60(TB) leukemia
[6] = system: SK-OV-3 ovarian
[7] = system: LOX IMVI melanoma
[8] = system: UACC-257 melanoma
[9] = system: T-47D breast
[10] = system: NCI-H522 lung

SMILES | TGI [1] | TGI [2] | TGI [3] | TGI [4] | TGI [5] | TGI [6] | TGI [7] | TGI [8] | TGI [9] | TGI [10] | GI50 [4] | GI50 [5] | GI50 [6] | GI50 [8] | GI50 [3] | GI50 [10] | GI50 [1] | GI50 [2] | GI50 [7]
Cc1c(N=Nc2ccc(Cl)cc2)c(-c2ccccc2)n(C2OC(CO)C(O)C(O)C2O)c(=S)c1C#N (stereo not drawn) | 33.7 µM | 33.9 µM | 31.1 µM | 32.7 µM | > 100 µM | 30.6 µM | 32.7 µM | 54 µM | 44.2 µM |  |  |  |  |  |  |  |  |  | 
Cn1c(=O)c(-c2ccccc2)c(N=[N+]=[N-])c2ccccc21 | > 100 µM | > 100 µM | 96.3 µM | > 100 µM |  | > 100 µM |  | > 100 µM | > 100 µM | 75.5 µM |  |  |  |  |  |  |  |  | 
CC(=O)Oc1ccc2c(C)cc(=O)oc2c1OC(C)=O | > 100 µM | 81.6 µM | > 100 µM | > 100 µM |  | > 100 µM | > 100 µM | > 100 µM |  |  |  |  |  |  |  |  |  |  | 
Cc1cc2oc(=N)c(C#N)c(C)c2cc1C | > 100 µM | > 100 µM | > 100 µM | 79.8 µM | > 100 µM | > 100 µM | > 100 µM | > 100 µM | > 100 µM |  |  |  |  |  |  |  |  |  | 
O=c1c(/C=C/c2c(O)ccc3ccccc23)nnc2sc(-c3cccc(Br)c3)nn12 | > 100 µM | 64.7 µM | > 100 µM |  | 26.6 µM | > 100 µM | 26.9 µM | > 100 µM | 37.3 µM | 42.3 µM |  |  |  |  |  |  |  |  | 
CN(C)CCC(=O)c1ccccc1 | > 57.6 µM | 46.9 µM | > 69.2 µM | > 71 µM | > 64.2 µM | > 68.8 µM | 57.8 µM | > 59 µM |  | 1.06 µM |  |  |  |  |  |  |  |  | 
S=C(S)NCNC(=S)S.[Zn+2] | > 100 µM | > 100 µM | > 100 µM | > 100 µM | > 100 µM | > 100 µM | > 100 µM | > 100 µM | > 100 µM |  |  |  |  |  |  |  |  |  | 
COC(CNC(=O)C(C)NC(=O)/C=C/c1ccccc1)OC (stereo not drawn) | > 100 µM | > 100 µM | > 100 µM | > 100 µM | > 100 µM | > 100 µM |  | > 100 µM | > 100 µM | > 100 µM |  |  |  |  |  |  |  |  | 
CN(C)C1(N(C)C)Oc2c(c(=O)n(C)c(=O)n2C)C(c2ccccc2)C1(F)F (stereo not drawn) | > 100 µM | > 100 µM | > 100 µM | > 100 µM |  | > 100 µM | > 100 µM | > 100 µM | > 100 µM |  |  |  |  |  |  |  |  |  | 
C=C(C)[C@@H]1CC[C@]2(C(=O)NC3CCCCC3)CC[C@]3(C)[C@H](CC[C@@H]4[C@@]5(C)CCCNC(C)(C)[C@@H]5CC[C@]43C)[C@@H]12 |  |  |  | 3.05 µM | 4.61 µM | 3.26 µM |  | 3.31 µM |  |  | 1.48 µM | 2.12 µM | 1.77 µM | 1.72 µM |  |  |  |  | 
Oc1[nH]c2ccccc2c1N=NC(=S)Nc1cccc(Cl)c1 | > 100 µM | > 100 µM | 28.8 µM |  | 49.6 µM | 61.1 µM | 33.4 µM | 75.5 µM | > 100 µM | 77.6 µM |  |  |  |  |  |  |  |  | 
N#Cc1c(N)n(-c2cccc(C(=O)O)c2)c(=O)c2cc([N+](=O)[O-])ccc12 |  | > 100 µM | > 100 µM | > 100 µM | > 100 µM |  | > 100 µM | > 100 µM | > 100 µM |  |  |  |  |  |  |  |  |  | 
N#CCCN(C(=O)Nc1ccccc1)[C@H]1CCCC[C@@H]1N(C(=O)Nc1ccccc1)c1ccccc1 | > 100 µM | > 100 µM | > 100 µM | > 100 µM |  | > 100 µM | > 100 µM | > 100 µM | > 100 µM | > 100 µM |  |  |  |  |  |  |  |  | 
O=c1cc(-c2cccc3ccccc23)[nH]c2ncccc12 | > 100 µM | 10.3 µM | > 100 µM |  | 0.0315 µM |  |  |  |  | 0.0698 µM and 0.0767 µM |  |  | 0.0147 µM |  | 0.0425 µM | 0.0158 µM |  |  | 
COC(=O)c1cc2ccc(N)nc2[nH]c1=O | > 100 µM | > 100 µM | > 100 µM | > 100 µM |  | > 100 µM | > 100 µM | > 100 µM | > 100 µM | > 100 µM |  |  |  |  |  |  |  |  | 
O=C(Cn1c[n+](CC(=O)c2ccc(-c3ccccc3)cc2)c2ccccc21)Nc1cccc2cccnc12 | 2.84 µM | 30.9 µM | 10.7 µM | 4.03 µM |  |  | 3.03 µM | 2.78 µM |  | 3.25 µM | 1.65 µM |  |  | 1.28 µM | 3.06 µM | 1.53 µM | 1.5 µM | 9.63 µM | 1.54 µM
CCOC(=O)NC(Nc1ccc(S(=O)(=O)Nc2nc(C)cc(C)n2)cc1)(C(=O)OCC)C(F)(F)F (stereo not drawn) | > 100 µM | > 100 µM | > 100 µM | > 100 µM | > 100 µM | > 100 µM | > 100 µM |  | > 100 µM |  |  |  |  |  |  |  |  |  | 
COc1ccc(P2(=S)OC(C)(C)C(C)(C)O2)cc1 | > 100 µM | > 100 µM | > 100 µM | > 100 µM | > 100 µM |  | > 100 µM | > 100 µM | > 100 µM | > 100 µM |  |  |  |  |  |  |  |  | 
NNC(=O)c1n[nH]nc1C(=O)NN | > 100 µM | > 100 µM |  |  | > 100 µM |  |  | > 100 µM |  |  |  |  |  |  |  |  |  |  | 
O=C1/C(=C/c2ccccc2S)N=C(c2ccccc2)N1c1nc2c(Cl)cc(Cl)cc2s1 | 54.8 µM | > 100 µM | 58 µM | 64.8 µM | 42.6 µM | 66 µM | 50.4 µM | > 100 µM | > 100 µM |  |  |  |  |  |  |  |  |  | 
O=C(/C=C/c1cc2ccccc2o1)N1CCN(c2ccccn2)CC1 | > 100 µM | > 100 µM |  |  | > 100 µM | > 100 µM | > 100 µM | > 100 µM | > 100 µM | > 100 µM |  |  |  |  |  |  |  |  | 
CC(=O)c1c(C)n([O-])c2cc(Cl)c(Cl)cc2[n+]1=O | > 100 µM | > 100 µM | 67.7 µM |  | 39.6 µM | 54.4 µM | 46.4 µM | 57.4 µM | > 100 µM | 27.9 µM |  |  |  |  |  |  |  |  | 
CCCCNC(=S)Nc1nc(C(=O)NNC(=S)Nc2ccccc2)cs1 | > 100 µM | > 100 µM | > 100 µM | 91.1 µM |  | > 100 µM |  | > 100 µM | > 100 µM |  |  |  |  |  |  |  |  |  | 
CC(OC(C)(C)C)[C@H](NC(=O)OCC(Cl)(Cl)Cl)C(=O)O (stereo partly drawn) | > 100 µM | > 100 µM | > 100 µM | > 100 µM | > 100 µM | > 100 µM |  | > 100 µM |  | > 100 µM |  |  |  |  |  |  |  |  | 
